According to paper PMC10812521, “Boesenbergia rotunda and Its Pinostrobin for Atopic Dermatitis: Dual 5-Lipoxygenase and Cyclooxygenase-2 Inhibitor and Its Mechanistic Study through Steady-State Kinetics and Molecular Modeling” (Antioxidants, 2024):
Values after ≈ are worked out from the molar mass of the structure shown. “Also recorded” adds a separate entry of the source. Structures can show the parent of a compound that is named as a salt. Where two headings read alike, the source gives them in different places.

Experiments:
Human recombinant COX-2 = target: T1, Human recombinant COX-2 (Homo sapiens, UniProt P35354); experiment: Cyclooxygenase-2 inhibitory assay; type: biochemical
T1 construct: purchased Sigma Aldrich C0858; host or cells: insect cells
T1 sequence (P35354 18-604): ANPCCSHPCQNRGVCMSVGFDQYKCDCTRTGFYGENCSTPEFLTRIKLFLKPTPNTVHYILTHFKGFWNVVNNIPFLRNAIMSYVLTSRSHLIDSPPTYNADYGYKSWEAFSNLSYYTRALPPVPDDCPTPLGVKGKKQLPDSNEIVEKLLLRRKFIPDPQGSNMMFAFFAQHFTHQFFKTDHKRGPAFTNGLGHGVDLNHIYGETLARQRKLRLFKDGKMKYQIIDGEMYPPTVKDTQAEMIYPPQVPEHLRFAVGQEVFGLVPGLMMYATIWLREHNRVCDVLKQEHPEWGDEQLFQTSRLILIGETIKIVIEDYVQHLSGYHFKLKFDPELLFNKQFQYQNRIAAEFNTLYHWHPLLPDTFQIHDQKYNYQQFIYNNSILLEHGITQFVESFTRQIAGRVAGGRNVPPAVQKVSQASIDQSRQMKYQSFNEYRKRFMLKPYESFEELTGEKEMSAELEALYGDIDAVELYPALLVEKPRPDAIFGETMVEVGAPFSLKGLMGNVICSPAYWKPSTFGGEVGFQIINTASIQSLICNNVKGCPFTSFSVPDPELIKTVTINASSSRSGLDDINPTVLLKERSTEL
Protocol: This method was adapted and modified from Chew et al. (2018). Human recombinant COX-2 expressed in insect cells (Sigma Aldrich, C0858) was used in this experiment. Initially, a solution of 100 mM Tris HCl buffer, pH 8, was plated out in each well of a 96-well plate. Various concentrations of 40 µL samples (dissolved in polysorbate-20 and DMSO) were further added to the plate, followed by the addition of 40 µL of 40 U COX-2 enzyme (in ice-cool 100 mM Tris HCl buffer, pH 8). The mixture was incubated at 25 °C for 15 min under dark condition. Following the incubation, 10 µL of 20 mM N,N,N′,N′-tetramethyl-p-phenylenediamine (TMPD) and 4 µL of 10 µM of arachidonic acid were added to the mixture. Incubation of the mixture was further performed at a subdued light condition for 15 min. Prostaglandin G2 (PGG2) as an intermediate peroxide product was formed by the reaction and further oxidized the TMPD to a purple-colored TMPD complex. The absorbance was measured at 611 nm. The experiments were performed in duplicate wells. […] The percentage of inhibition was calculated by Equation (7), and the IC50 values were determined. (7) % Inhibition=Absorbance control−Absorbance sample/Absorbance control×100

Human recombinant 5-LOX = target: T2, Human recombinant 5-LOX (Homo sapiens, UniProt P09917); experiment: 5-Lipoxygenase inhibitory assay; type: biochemical
T2 construct: purchased Cayman Chemical
T2 sequence (P09917 1-674): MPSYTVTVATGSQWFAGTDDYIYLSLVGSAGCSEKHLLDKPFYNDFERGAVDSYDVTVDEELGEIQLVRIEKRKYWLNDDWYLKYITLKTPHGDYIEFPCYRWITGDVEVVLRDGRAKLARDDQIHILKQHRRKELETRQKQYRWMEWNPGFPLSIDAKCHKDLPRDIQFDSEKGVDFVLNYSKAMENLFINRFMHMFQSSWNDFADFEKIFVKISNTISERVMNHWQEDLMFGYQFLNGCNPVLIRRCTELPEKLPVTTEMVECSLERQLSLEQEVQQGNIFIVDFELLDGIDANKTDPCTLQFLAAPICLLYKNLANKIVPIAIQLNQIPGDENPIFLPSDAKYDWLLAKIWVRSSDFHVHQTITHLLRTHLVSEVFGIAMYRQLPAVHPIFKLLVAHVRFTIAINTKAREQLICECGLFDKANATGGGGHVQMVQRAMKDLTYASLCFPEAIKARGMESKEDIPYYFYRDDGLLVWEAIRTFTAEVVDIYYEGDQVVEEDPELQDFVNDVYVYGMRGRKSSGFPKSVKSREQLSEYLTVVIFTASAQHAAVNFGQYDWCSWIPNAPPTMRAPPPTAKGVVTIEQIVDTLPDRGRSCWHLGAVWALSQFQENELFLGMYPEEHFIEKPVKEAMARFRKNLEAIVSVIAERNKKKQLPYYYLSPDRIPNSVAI
Protocol: We performed this method according to a previous study with some modifications. Human recombinant 5-LOX (Cayman Chemical, E.C. 1.13.11.34, Ann Arbor, MI, USA) was used in this study. Various concentrations of 20 µL of the tested samples (dissolved in polysorbate-20 and DMSO) were plated in a 96-well UV transparent plate followed by the addition of 100 µL of 0.1 M potassium phosphate buffer, pH 6.3. The mixture was maintained at 25 °C before the addition of enzyme. We added 20 µL of 100 U 5-LOX enzyme (in 0.1 M potassium phosphate buffer, pH 6.3) to the sample solution followed by a 4 min incubation at 25 °C. Afterward, the reaction was initiated by adding 10 µL of 1 mM arachidonic acid as a substrate. The incubation was performed at 25 °C for 30 min, and the absorbance was measured at 234 nm using a microplate reader. The nonenzymatic control was used as a background. […] The experiments were performed in two rounds to generate five replicate wells in total. The percentage of inhibition was calculated by Equation (8), and the IC50 values were determined. (8) % Inhibition=Absorbance control−Absorbance sample/Absorbance control×100

[1] = DPPH radical scavenging activity; settings: pure compounds
Protocol: Each extract/EOs sample (20 µL) at various concentrations ([…]–5 mg/mL) was placed to a 96-well plate, followed by the addition of 120 µM DPPH solution in methanol (180 µL). The plate was subsequently incubated for 30 min in the dark at 37 °C. After that, the absorbance was measured by a microplate reader at 517 nm. Quercetin and solvent were used as a positive control and a control, respectively. The radical scavenging percentage inhibition against DPPH was calculated using Equation (4). (4) % Inhibition=Absorbance control−Absorbance sample/Absorbance control×100

[2] = Nitric oxide (NO) radical scavenging activity (Griess reaction); settings: pure compounds
Protocol: The technique was adapted and modified from the study of Thadhani et al.. The Griess reaction was used to determine the NO radical scavenging activity. The NO radicals were generated from 10 mM sodium nitroprusside (SNP) in phosphate-buffered saline (PBS), pH 7.3. A range of sample concentrations (10 µL, 0.625–5 mg/mL) were reacted with 10 mM SNP in PBS at pH 7.3 (90 µL) at room temperature for 90 min in a 96-well plate under visible polychromatic light. Afterward, 1% sulfanilamide in 5% H3PO4 (50 µL) was added to the preincubated extract, followed by subsequent incubation in a dark condition with ambient temperature for 5 min. Following that, 50 µL of 0.1% w/v N-(1-naphtyl)-ethylenediamine (NED) in distilled water was added to each well before incubating at room temperature for 30 min in a dark condition. The diazotization of sulfanilamide with a nitrite ion occurred, followed by a coupling reaction with NED solution to generate a magenta-colored chromophore. The absorbance was measured using a microplate reader at 540 nm. Quercetin was used as a positive control. […] A solvent was used as a control. The percentage inhibition was calculated using Equation (5). (5) % Inhibition=Absorbance control−Absorbance sample/Absorbance control×100

Staphylococcus aureus = experiment: Broth dilution assay (MIC); type: cell-based; settings: pure compounds, inactive at >200 µg/mL
Protocol: The MIC values were determined using a broth dilution assay. Tetracycline used as an antibiotic was dissolved in 50% ethanol while EOs, extracts, and pinostrobin dissolved in DMSO (0.2% v/v) were suspended in an LB medium to obtain the final concentrations of EOs/extract, pinostrobin, and tetracycline in the range of 0.1562–200 µg/mL. Then, 20 µL of the bacterial culture with an OD600 value of ~0.5 was taken into each tube, which was continuously inoculated. Afterward, the treated culture was incubated at 37 °C for 24 h in a shaking condition (180 rpm). The absorbance was further measured at 600 nm. An LB medium and 0.2% DMSO were used as positive controls, while the cell culture without treatment in an LB medium was used as a negative control. The experiments were performed in triplicate.

[3] = Ferric reducing antioxidant power (FRAP); settings: pure compound
Protocol: Each extract/EOs sample (10 µL) was added to each well of a 96-well plate at various concentrations (1–5 mg/mL), followed by a freshly prepared FRAP reagent (190 µL). The mixture was then incubated at room temperature for 4 min. Vivid blue resulted from the […]. The absorbance was further measured at 595 nm. The FRAP value (Equation (6)) was determined by calculating the concentration of ferric ions in the samples relative to the calibration curve of FeSO4 (FRAP value in µM FeSO4/mg dry weight of extract). (6) FRAP value=C ×v (mL)/d × c (mg/mL) where C is the calibrated sample concentration, v is the volume sample, d is the dilution factor, and c is the concentration of the tested sample.

[4] = target: T3, Human recombinant 5-lipoxygenase (Homo sapiens, UniProt P09917); experiment: Steady-state inhibition kinetic study of 5-lipoxygenase; type: biochemical; settings: for type of inhibition against 5-LOX: Michaelis-Menten and Lineweaver-Burk plots
T3 construct: purchased Cayman Chemical
T3 sequence (P09917 1-674): T2 sequence (P09917 1-674)
Protocol: The same experimental conditions as described previously for determining enzyme inhibition were applied. The reaction was performed at 25 °C and measured kinetically for 30 min (BioTek Synergy H1 microplate reader, Winooski, VT, USA). […] Furthermore, the enzymes’ velocity was plotted versus the substrate concentration, which was fitted to the Henri–Michaelis–Menten equation. In addition, the data were transformed to fit a double reciprocal plot using the Lineweaver–Burk method. […] All measurements were performed in two rounds of triplicate wells.

[5] = test system: keratinocyte (HaCaT) cells; parameters: method as in earlier work; settings: cited from earlier work
[6] = topical application, mouse model, 1000 mg/kg; cited from earlier work
COX-2 and COX-1 = test system: COX-2 and COX-1; parameters: method as in PMID 26626242; settings: cited from earlier work
COX-2 = settings: cited from earlier work
5-LOX = test system: 5-LOX; parameters: method as in PMID 17376394; settings: cited from earlier work
soybean 15-lipoxygenase = test system: soybean 15-lipoxygenase; parameters: method as in PMID 26048035; settings: tested range of concentrations; cited from earlier work
[7] = test system: LPS-induced RAW264.7 murine macrophage cells; parameters: method as in PMID 26048035; settings: 25 µg/mL; cited from earlier work
[8] = test system: RAW264.7 murine macrophage cells; parameters: method as in PMID 26048035; settings: 25 µg/mL; cited from earlier work
[9] = read-out: COX-2 IC50 (µg/mL) (converted)
[10] = Staphylococcus aureus, read-out: MIC

Compound: CCC(=O)OCC(=O)[C@@]1(OC(=O)CC)[C@@H](C)C[C@H]2[C@@H]3CCC4=CC(=O)C=C[C@]4(C)[C@@]3(F)[C@@H](O)C[C@@]21C [BD, betamethasone dipropionate]
- IC50 (Human recombinant COX-2; read-out: COX-2 IC50): 240 µM
- IC50 (Human recombinant COX-2; [9]): 240 µM
- IC50 (Human recombinant 5-LOX; 5-LOX IC50 (µM)): 2.08 µM
- IC50 (Human recombinant 5-LOX; 5-LOX IC50 (µg/mL)): 2.08 µM

Compound: O=c1c(O)c(-c2ccc(O)c(O)c2)oc2cc(O)cc(O)c12 [Quercetin, Quercetin hydrate]
- DPPH Radical; IC50 [1]: 19.08 ± 1.34 µg/mL
- IC50 [1]: 63.1 µM
- IC50 [2]: 310 µM
- NO Radical; IC50 [2]: 93.58 ± 7.93 µg/mL

Compound: COc1cc(O)c2c(c1)O[C@H](c1ccccc1)CC2=O [Pinostrobin, pinostrobin]
- MIC (Staphylococcus aureus; [10]): > 200 µg/mL
- MIC (Staphylococcus aureus): >200 µg/mL
- DPPH Radical; IC50 [1]: >1000 µg/mL
- NO Radical; IC50 [2]: >1000 µg/mL
- FRAP (mM FeSO4/g Extract) [3]: 1.04 ± 0.01 mM FeSO4/g Extract
- IC50 (Human recombinant COX-2; read-out: COX-2 IC50): 286 µM
- IC50 (Human recombinant COX-2; [9]): 286 µM
- IC50 (Human recombinant 5-LOX; read-out: 5-LOX IC50): 0.499 µM
- IC50 (Human recombinant 5-LOX; read-out: 5-LOX IC50 (µg/mL) (converted)): 0.499 µM
- fold superior 5-LOX inhibitory activity than BD (Human recombinant 5-LOX; relative to BD): 4 fold
- fold superior 5-LOX inhibitory activity to NDGA (Human recombinant 5-LOX; relative to NDGA): 10 fold
- Ki [4]: 2.28 µM
- type of inhibition against 5-LOX [4]: mixed-type inhibition; also recorded: mixed-type inhibitor
- IC50 keratinocyte (HaCaT) cells [5]: 30.76 µg/mL (≈ 114 µM)
- full maximal inhibitory concentration (IC100) keratinocyte (HaCaT) cells [5]: > 250 µg/mL
- dermal toxicity [6]: no dermal toxicity was observed

Compound: COc1cc(O)c2c(c1)OC(c1ccccc1)CC2=O (racemic) [racemic pinostrobin, pinostrobin]
- COX activity compared with the positive control (COX-2 and COX-1): comparable to etodolac
- selectivity COX-2 versus COX-1 (COX-2 and COX-1): more selective for COX-2 than COX-1

Compound: COc1ccc2c(c1)c(CC(=O)O)c(C)n2C(=O)c1ccc(Cl)cc1 [indomethacin]
- COX-2 IC50 (COX-2): 0.26 ± 0.03 µg/mL

Compound: CC(Cc1ccc(O)c(O)c1)C(C)Cc1ccc(O)c(O)c1 (stereo not drawn) [NDGA, nordihydroguaiaretic acid]
- type of inhibition against 5-LOX [4]: mixed-type inhibition; also recorded: mixed-type inhibitor

Compound: (–)-pinostrobin
- activity towards soybean 15-lipoxygenase (soybean 15-lipoxygenase): inactive
- inhibition of NO production [7]: 90.84%
- cytotoxic effect [8]: without a cytotoxic effect

Compound: CN(C)[C@@H]1C(O)=C(C(N)=O)C(=O)[C@@]2(O)C(O)=C3C(=O)c4c(O)cccc4[C@@](C)(O)[C@H]3C[C@@H]12 [Tetracycline, tetracycline hydrochloride]
- MIC (Staphylococcus aureus; [10]): 3.12 µg/mL
